# Laboratory results as given in the kinase profiling compilation of Christmann-Franck et al. (2016).
# How the values were obtained:
# Experiment in all cases: KINOMEscan competition binding
# Details in all cases: compound 10.0 µM
# [1] = target: JAK1 JH1 catalytic (human) (UniProt P23458)
# NEK6 (human) = NEK6 (human) (UniProt Q9HC98)
# MAPK4 (human) = MAPK4 (human) (UniProt P31152)
# PRKG1 (human) = PRKG1 (human) (UniProt Q13976)
# RPS6KA2 KD1 (human) = RPS6KA2 KD1 (human) (UniProt Q15349)
# CDKL2 (human) = CDKL2 (human) (UniProt Q92772)
# [2] = target: JAK1 JH2 pseudokinase (human) (UniProt P23458)
# JAK1 JH2 pseudokinase (human), sequence (P23458 whole entry, looked up): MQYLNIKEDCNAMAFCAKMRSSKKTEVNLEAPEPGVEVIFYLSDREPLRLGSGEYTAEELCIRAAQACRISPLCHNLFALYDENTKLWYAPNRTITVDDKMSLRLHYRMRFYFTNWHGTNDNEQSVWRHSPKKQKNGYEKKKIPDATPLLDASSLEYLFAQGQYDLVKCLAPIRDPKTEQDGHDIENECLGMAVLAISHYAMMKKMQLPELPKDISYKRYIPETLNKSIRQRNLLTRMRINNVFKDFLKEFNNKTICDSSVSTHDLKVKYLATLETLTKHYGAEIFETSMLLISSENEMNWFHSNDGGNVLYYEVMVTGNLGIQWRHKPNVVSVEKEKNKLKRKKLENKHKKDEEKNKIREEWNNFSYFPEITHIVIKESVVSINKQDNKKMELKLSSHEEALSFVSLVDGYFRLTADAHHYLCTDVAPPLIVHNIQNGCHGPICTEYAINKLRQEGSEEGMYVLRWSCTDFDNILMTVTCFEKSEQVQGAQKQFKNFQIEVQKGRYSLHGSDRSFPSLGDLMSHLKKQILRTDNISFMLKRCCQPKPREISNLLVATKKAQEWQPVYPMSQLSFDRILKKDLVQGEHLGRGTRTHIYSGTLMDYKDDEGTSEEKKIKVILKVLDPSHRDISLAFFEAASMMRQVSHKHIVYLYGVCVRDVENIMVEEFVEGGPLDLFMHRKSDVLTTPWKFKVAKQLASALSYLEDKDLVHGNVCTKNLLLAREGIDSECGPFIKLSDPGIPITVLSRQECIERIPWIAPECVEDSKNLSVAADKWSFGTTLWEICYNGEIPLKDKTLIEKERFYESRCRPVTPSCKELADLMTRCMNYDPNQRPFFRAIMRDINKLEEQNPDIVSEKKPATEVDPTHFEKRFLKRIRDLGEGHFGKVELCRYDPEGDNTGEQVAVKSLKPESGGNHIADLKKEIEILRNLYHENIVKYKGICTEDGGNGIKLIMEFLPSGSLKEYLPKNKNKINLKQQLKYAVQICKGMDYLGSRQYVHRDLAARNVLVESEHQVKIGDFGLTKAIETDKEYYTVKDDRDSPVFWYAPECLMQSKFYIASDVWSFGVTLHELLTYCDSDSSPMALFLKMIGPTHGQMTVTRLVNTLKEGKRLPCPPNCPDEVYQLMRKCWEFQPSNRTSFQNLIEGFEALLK
# TEK (human) = TEK (human) (UniProt Q02763)
# STK35 (human) = STK35 (human) (UniProt Q8TDR2)
# TNK1 (human) = TNK1 (human) (UniProt Q13470)
# TNK1 (human), sequence (Q13470 whole entry, looked up): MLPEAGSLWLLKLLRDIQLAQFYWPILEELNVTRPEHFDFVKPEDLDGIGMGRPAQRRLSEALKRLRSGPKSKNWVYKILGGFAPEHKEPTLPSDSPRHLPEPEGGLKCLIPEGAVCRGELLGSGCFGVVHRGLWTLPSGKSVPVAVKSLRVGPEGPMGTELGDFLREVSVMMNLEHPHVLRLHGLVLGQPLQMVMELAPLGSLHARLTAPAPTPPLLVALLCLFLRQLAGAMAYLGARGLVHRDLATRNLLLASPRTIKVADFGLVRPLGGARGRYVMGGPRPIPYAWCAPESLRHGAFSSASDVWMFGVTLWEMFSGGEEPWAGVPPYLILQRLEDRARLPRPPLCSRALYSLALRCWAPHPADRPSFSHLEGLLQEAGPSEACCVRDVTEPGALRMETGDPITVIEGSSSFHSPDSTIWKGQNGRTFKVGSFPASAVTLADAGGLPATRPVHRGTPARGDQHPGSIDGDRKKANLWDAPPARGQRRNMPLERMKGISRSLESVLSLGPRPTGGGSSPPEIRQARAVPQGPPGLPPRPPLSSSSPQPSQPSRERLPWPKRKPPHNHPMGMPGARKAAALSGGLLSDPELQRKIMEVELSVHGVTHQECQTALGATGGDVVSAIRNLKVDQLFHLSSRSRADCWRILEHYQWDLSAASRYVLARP
# ZAP70 (human) = ZAP70 (human) (UniProt P43403)
# ZAP70 (human), sequence (P43403 whole entry, looked up): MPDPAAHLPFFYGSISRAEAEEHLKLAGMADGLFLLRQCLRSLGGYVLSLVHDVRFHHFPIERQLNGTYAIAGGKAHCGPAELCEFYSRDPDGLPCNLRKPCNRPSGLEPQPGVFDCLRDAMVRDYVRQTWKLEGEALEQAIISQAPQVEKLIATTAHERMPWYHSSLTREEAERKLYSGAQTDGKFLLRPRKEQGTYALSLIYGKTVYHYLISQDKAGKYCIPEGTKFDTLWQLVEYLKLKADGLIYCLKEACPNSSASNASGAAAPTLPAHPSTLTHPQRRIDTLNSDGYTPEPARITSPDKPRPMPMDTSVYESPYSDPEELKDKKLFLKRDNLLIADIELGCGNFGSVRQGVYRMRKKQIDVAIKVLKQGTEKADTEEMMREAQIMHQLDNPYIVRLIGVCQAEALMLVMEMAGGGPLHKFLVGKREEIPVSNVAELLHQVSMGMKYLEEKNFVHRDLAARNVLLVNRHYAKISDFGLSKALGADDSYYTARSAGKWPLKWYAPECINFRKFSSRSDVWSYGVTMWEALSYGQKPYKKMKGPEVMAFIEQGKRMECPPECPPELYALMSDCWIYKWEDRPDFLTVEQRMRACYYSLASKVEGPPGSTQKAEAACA
# TNNI3K (human) = TNNI3K (human) (UniProt Q59H18)
# EPHA7 (human) = EPHA7 (human) (UniProt Q15375)
# MAPK10 (human) = MAPK10 (human) (UniProt P53779)
# TAOK1 (human) = TAOK1 (human) (UniProt Q7L7X3)
# TAOK1 (human), sequence (Q7L7X3 whole entry, looked up): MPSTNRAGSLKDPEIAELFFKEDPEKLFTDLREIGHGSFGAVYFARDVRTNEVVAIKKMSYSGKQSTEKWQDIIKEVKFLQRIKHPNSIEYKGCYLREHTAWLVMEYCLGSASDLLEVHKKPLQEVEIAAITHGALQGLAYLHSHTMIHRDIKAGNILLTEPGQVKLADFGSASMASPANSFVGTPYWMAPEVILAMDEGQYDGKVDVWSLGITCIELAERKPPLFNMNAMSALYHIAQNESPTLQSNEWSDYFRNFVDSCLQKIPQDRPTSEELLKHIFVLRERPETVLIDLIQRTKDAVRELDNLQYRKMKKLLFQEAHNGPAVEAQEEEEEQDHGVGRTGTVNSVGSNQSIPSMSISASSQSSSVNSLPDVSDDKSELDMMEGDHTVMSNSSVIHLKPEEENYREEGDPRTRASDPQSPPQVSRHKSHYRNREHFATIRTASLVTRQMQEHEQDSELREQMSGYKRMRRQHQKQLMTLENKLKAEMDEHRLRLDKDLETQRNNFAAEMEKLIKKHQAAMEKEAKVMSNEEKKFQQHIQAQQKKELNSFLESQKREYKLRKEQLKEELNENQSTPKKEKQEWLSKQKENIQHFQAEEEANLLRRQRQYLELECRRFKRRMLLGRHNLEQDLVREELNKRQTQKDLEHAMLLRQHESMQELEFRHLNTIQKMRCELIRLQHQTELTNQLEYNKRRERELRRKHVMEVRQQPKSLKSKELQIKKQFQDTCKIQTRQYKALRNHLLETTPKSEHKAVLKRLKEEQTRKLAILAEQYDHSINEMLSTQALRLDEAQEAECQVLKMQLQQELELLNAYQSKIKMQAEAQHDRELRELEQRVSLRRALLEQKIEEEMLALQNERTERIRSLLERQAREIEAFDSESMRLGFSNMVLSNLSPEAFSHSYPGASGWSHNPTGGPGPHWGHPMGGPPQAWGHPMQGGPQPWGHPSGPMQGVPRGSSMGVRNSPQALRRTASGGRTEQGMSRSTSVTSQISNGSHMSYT
# RPS6KA5 KD2 (human) = RPS6KA5 KD2 (human) (UniProt O75582)
# FER (human) = FER (human) (UniProt P16591)
# PIM3 (human) = PIM3 (human) (UniProt Q86V86)
# ACVR2A (human) = ACVR2A (human) (UniProt P27037)
# CHEK2 (human) = CHEK2 (human) (UniProt O96017)
# DMPK (human) = DMPK (human) (UniProt Q09013)
# NUAK2 (human) = NUAK2 (human) (UniProt Q9H093)
# TYRO3 (human) = TYRO3 (human) (UniProt Q06418)
# MST4 (human) = MST4 (human) (UniProt Q9P289)
# CDK17 (human) = CDK17 (human) (UniProt Q00537)
# [3] = tested on: EIF2AK4 KD2 (human), Q9P2K8 [S808G]
# MST1R (human) = MST1R (human) (UniProt Q04912)
# FGFR2 (human) = FGFR2 (human) (UniProt P21802)
# CSK (human) = CSK (human) (UniProt P41240)
# PRKCD (human) = PRKCD (human) (UniProt Q05655)
# [4] = tested on: FLT3 (human), P36888 [N841I]
# STK3 (human) = STK3 (human) (UniProt Q13188)
# PIM1 (human) = PIM1 (human) (UniProt P11309)
# PIM1 (human), sequence (P11309 whole entry, looked up): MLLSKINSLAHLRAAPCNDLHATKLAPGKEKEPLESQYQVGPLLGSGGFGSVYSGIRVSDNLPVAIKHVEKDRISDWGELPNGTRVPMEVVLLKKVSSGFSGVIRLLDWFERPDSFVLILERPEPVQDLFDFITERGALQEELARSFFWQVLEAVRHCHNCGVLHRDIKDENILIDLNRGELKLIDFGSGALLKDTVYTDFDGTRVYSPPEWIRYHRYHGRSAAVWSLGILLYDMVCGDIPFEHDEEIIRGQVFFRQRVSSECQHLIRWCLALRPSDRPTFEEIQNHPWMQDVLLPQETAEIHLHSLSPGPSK
# EPHA6 (human) = EPHA6 (human) (UniProt Q9UF33)
# PAK1 (human) = PAK1 (human) (UniProt Q13153)
# BMPR1A (human) = BMPR1A (human) (UniProt P36894)
# CSNK2A1 (human) = CSNK2A1 (human) (UniProt P68400)
# CSNK2A1 (human), sequence (P68400 whole entry, looked up): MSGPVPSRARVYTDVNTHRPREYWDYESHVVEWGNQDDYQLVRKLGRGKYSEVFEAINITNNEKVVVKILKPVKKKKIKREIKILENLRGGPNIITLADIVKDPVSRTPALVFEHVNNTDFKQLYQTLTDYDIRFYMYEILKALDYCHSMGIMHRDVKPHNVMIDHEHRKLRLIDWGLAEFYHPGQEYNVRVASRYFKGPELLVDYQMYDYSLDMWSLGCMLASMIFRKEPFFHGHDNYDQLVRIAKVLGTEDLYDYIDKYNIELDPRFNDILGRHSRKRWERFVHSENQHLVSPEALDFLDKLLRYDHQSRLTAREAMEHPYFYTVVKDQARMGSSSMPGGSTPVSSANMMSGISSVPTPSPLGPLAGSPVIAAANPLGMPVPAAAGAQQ
# AKT3 (human) = AKT3 (human) (UniProt Q9Y243)
# AKT3 (human), sequence (Q9Y243 whole entry, looked up): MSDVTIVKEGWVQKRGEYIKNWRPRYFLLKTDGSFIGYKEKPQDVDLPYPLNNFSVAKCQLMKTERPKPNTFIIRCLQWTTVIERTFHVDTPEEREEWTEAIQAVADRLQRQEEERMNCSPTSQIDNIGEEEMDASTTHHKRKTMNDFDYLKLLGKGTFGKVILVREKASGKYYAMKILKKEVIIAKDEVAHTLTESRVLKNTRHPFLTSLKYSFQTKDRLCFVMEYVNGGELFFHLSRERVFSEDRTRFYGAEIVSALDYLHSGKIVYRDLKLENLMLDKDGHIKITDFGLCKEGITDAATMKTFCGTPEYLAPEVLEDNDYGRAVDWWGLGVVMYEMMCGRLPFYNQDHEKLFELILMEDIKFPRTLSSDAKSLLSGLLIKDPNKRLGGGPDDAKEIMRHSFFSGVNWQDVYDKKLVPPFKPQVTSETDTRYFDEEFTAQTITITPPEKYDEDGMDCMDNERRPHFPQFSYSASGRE
# TNK2 (human) = TNK2 (human) (UniProt Q07912)
# RIPK1 (human) = RIPK1 (human) (UniProt Q13546)
# JAK1 JH1 catalytic (human), sequence (P23458 whole entry, looked up): as the sequence (P23458 whole entry, looked up) above
# NEK6 (human), sequence (Q9HC98 whole entry, looked up): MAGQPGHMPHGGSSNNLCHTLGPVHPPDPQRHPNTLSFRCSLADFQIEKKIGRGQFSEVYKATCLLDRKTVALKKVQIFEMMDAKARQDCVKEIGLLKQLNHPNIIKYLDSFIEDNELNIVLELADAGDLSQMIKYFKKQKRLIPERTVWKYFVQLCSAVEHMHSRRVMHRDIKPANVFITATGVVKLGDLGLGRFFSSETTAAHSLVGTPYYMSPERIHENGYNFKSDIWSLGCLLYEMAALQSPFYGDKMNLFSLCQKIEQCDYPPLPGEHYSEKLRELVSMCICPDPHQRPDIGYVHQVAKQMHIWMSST
SMILES,"kinase still bound, per cent of control [1]","kinase still bound, per cent of control (NEK6 (human))","kinase still bound, per cent of control (MAPK4 (human))","kinase still bound, per cent of control (PRKG1 (human))","kinase still bound, per cent of control (RPS6KA2 KD1 (human))","kinase still bound, per cent of control (CDKL2 (human))","kinase still bound, per cent of control [2]","kinase still bound, per cent of control (TEK (human))","kinase still bound, per cent of control (STK35 (human))","kinase still bound, per cent of control (TNK1 (human))","kinase still bound, per cent of control (ZAP70 (human))","kinase still bound, per cent of control (TNNI3K (human))","kinase still bound, per cent of control (EPHA7 (human))","kinase still bound, per cent of control (MAPK10 (human))","kinase still bound, per cent of control (TAOK1 (human))","kinase still bound, per cent of control (RPS6KA5 KD2 (human))","kinase still bound, per cent of control (FER (human))","kinase still bound, per cent of control (PIM3 (human))","kinase still bound, per cent of control (ACVR2A (human))","kinase still bound, per cent of control (CHEK2 (human))",other results
Cc1ccc(NC(=O)c2cccc(C(C)(C)C#N)c2)cc1Nc1ccc2ncn(C)c(=O)c2c1,100%,100%,100%,100%,89%,85%,82%,62%,75%,100%,100%,15%,84%,73%,91%,100%,100%,98%,100%,92%,"kinase still bound, per cent of control (DMPK (human)): 90%; kinase still bound, per cent of control (NUAK2 (human)): 100%; kinase still bound, per cent of control (TYRO3 (human)): 100%; kinase still bound, per cent of control (MST4 (human)): 100%; kinase still bound, per cent of control (CDK17 (human)): 100%; kinase still bound, per cent of control [3]: 85%; kinase still bound, per cent of control (MST1R (human)): 100%; kinase still bound, per cent of control (FGFR2 (human)): 55%; kinase still bound, per cent of control (CSK (human)): 1.2%; kinase still bound, per cent of control (PRKCD (human)): 89%; kinase still bound, per cent of control [4]: 62%; kinase still bound, per cent of control (STK3 (human)): 100%; kinase still bound, per cent of control (PIM1 (human)): 100%; kinase still bound, per cent of control (EPHA6 (human)): 0%; kinase still bound, per cent of control (PAK1 (human)): 100%; kinase still bound, per cent of control (BMPR1A (human)): 100%; kinase still bound, per cent of control (CSNK2A1 (human)): 88%; kinase still bound, per cent of control (AKT3 (human)): 100%; kinase still bound, per cent of control (TNK2 (human)): 100%; kinase still bound, per cent of control (RIPK1 (human)): 83%"
C[C@@H](Oc1cc(-n2cnc3ccc(CN4CCN(C)CC4)cc32)sc1C(N)=O)c1ccccc1C(F)(F)F,100%,95%,100%,100%,4%,90%,92%,78%,76%,87%,69%,92%,83%,100%,14%,34%,100%,11%,100%,69%,"kinase still bound, per cent of control (DMPK (human)): 63%; kinase still bound, per cent of control (NUAK2 (human)): 1.2%; kinase still bound, per cent of control (TYRO3 (human)): 100%; kinase still bound, per cent of control (MST4 (human)): 95%; kinase still bound, per cent of control (CDK17 (human)): 90%; kinase still bound, per cent of control [3]: 29%; kinase still bound, per cent of control (MST1R (human)): 100%; kinase still bound, per cent of control (FGFR2 (human)): 75%; kinase still bound, per cent of control (CSK (human)): 100%; kinase still bound, per cent of control (PRKCD (human)): 22%; kinase still bound, per cent of control [4]: 1.2%; kinase still bound, per cent of control (STK3 (human)): 74%; kinase still bound, per cent of control (PIM1 (human)): 3%; kinase still bound, per cent of control (EPHA6 (human)): 92%; kinase still bound, per cent of control (PAK1 (human)): 100%; kinase still bound, per cent of control (BMPR1A (human)): 28%; kinase still bound, per cent of control (CSNK2A1 (human)): 13%; kinase still bound, per cent of control (AKT3 (human)): 100%; kinase still bound, per cent of control (TNK2 (human)): 100%; kinase still bound, per cent of control (RIPK1 (human)): 100%"
O=C(NC1CC1)c1cccc(-c2ccc3c(NC(=O)C4CC4)n[nH]c3c2)c1,100%,90%,100%,100%,96%,8.6%,84%,54%,16%,100%,90%,92%,96%,61%,4.5%,100%,78%,70%,92%,100%,"kinase still bound, per cent of control (DMPK (human)): 100%; kinase still bound, per cent of control (NUAK2 (human)): 24%; kinase still bound, per cent of control (TYRO3 (human)): 100%; kinase still bound, per cent of control (MST4 (human)): 94%; kinase still bound, per cent of control (CDK17 (human)): 37%; kinase still bound, per cent of control [3]: 96%; kinase still bound, per cent of control (MST1R (human)): 90%; kinase still bound, per cent of control (FGFR2 (human)): 100%; kinase still bound, per cent of control (CSK (human)): 84%; kinase still bound, per cent of control (PRKCD (human)): 100%; kinase still bound, per cent of control [4]: 33%; kinase still bound, per cent of control (STK3 (human)): 100%; kinase still bound, per cent of control (PIM1 (human)): 70%; kinase still bound, per cent of control (EPHA6 (human)): 100%; kinase still bound, per cent of control (PAK1 (human)): 70%; kinase still bound, per cent of control (BMPR1A (human)): 76%; kinase still bound, per cent of control (CSNK2A1 (human)): 62%; kinase still bound, per cent of control (AKT3 (human)): 100%; kinase still bound, per cent of control (TNK2 (human)): 100%; kinase still bound, per cent of control (RIPK1 (human)): 0.05%"
